Experimental findings from ChEMBL document CHEMBL3045786, “Insect antifeedant activity of tetranortriterpenoids from the Rutales. A perusal of structural relations” (2002) are described below.

The test system of this test is Spodoptera litura. As to the kind of experiment: Feeding index against larvae of Spodoptera litura in castor leaves =.
The molecule `C/C=C(\C)C(=O)O[C@H]1CC(=O)[C@@]2(C)CO[C@H]3[C@H]4O[C@@H]5C[C@@H](c6ccoc6)C(C)=C5[C@@]4(C)[C@H](CC(=O)OC)[C@]1(C)[C@@H]32` [3-OXOSALANNIN] came in with a PFI of 42.9%.
The same measure for `C/C=C(\C)C(=O)O[C@@H]1[C@@H]2OC[C@]3(C)[C@H](O)C[C@H](O)[C@@]4(CO[C@H](C(=O)OC)[C@H]4[C@]1(C)[C@]14O[C@@]1(C)[C@H]1C[C@@H]4O[C@@H]4OC=C[C@@]41O)[C@@H]23` [3-TIGLOYL MELIACARPIN]: 13.3%; for `CC(=O)O[C@@H]1C[C@@H](O)[C@@]2(C)[C@@H](C[C@@H](OC(C)=O)[C@@]3(C)C4=CC[C@@H](C5=C[C@@H](CC(C)C)O[C@@H]5O)[C@]4(C)C[C@@H](O)[C@@H]32)C1(C)C` [3R-ACETOXY-1R-HYDROXYAZADIRACHTOL]: 4.2%.
The same measure for `COC(=O)C[C@H]1[C@]2(C)C3=C(C)[C@H](c4ccoc4)C[C@H]3O[C@@H]2C(=O)[C@@H]2[C@]1(C)C(=O)C=C[C@@]2(C)C(=O)OC` [6-OXONIMBIN]: 42.3%; for `CC(=O)O[C@@H]1C(=O)[C@H]2C(C)(C)C(=O)C=C[C@]2(C)[C@H]2CC[C@]3(C)C(=CC[C@H]3c3ccoc3)[C@]12C` [6-OXONIMONOL]: 44.2%; for `C/C=C(\C)C(=O)O[C@H]1C[C@@H](OC(C)=O)[C@@]2(C(=O)OC)CO[C@H]3[C@@H](O)[C@@](C)([C@]45O[C@@]4(C)[C@H]4C[C@@H]5O[C@@H]5OC=C[C@@]54O)[C@@H]4[C@H](O)OC[C@@]14[C@@H]32` [AZADIRACHTIN H]: 30.5%.
The same measure for `C/C=C(\C)C(=O)O[C@H]1C[C@@H](OC(C)=O)[C@@]2(C)CO[C@@H]3[C@@H](O)[C@@](C)([C@]45O[C@@]4(C)[C@H]4C[C@@H]5O[C@@H]5OC=C[C@@]54O)[C@H]4[C@]1(CO[C@]4(O)C(=O)OC)[C@@H]32` [AZADIRACHTIN-D]: 28.9%; for `C/C=C(\C)C(=O)O[C@H]1C[C@@H](OC(C)=O)[C@@]2(C)CO[C@H]3[C@@H](O)[C@@](C)([C@]45O[C@@]4(C)[C@H]4C[C@@H]5O[C@@H]5OC=C[C@@]54O)[C@@H]4[C@H](O)OC[C@@]14[C@@H]32` [AZADIRACHTIN-I]: 32.2%; for `COC(=O)[C@H]1OC[C@]23[C@@H]1[C@](C)([C@]14O[C@@]1(C)[C@H]1C[C@@H]4O[C@@H]4OC=C[C@@]41O)[C@H](O)[C@@H]1OC[C@](C(=O)OC)([C@H](O)C[C@@H]2O)[C@H]13` [AZADIRACHTOL]: 6.1%.
In turn, `C/C=C(\C)C(=O)O[C@H]1C[C@@H](OC(C)=O)[C@@]2(C(=O)OC)CO[C@H]3[C@@H](O)[C@@](C)([C@]45O[C@@]4(C)[C@H]4C[C@@H]5O[C@@H]5OC=C[C@@]54O)[C@H]4[C@]1(CO[C@]4(O)C(=O)OC)[C@@H]32` [AZADIRACTIN] showed a PFI of 27.5%.
Regarding `CC(=O)O[C@@H]1C[C@H]2C(C)(C)C(=O)C=C[C@]2(C)[C@H]2CC[C@]3(C)C(=CC(=O)[C@H]3C3=CC(O)OC3=O)[C@@]21C` (stereo partly drawn) [AZADIRADIONE PP], the PFI amounted to 34.7%.
Regarding `CC(=O)O[C@@H]1C[C@H]2C(C)(C)C(=O)C=C[C@]2(C)[C@H]2CC[C@]3(C)C(=CC(=O)[C@H]3c3ccoc3)[C@@]21C` [AZADIRADIONE], the PFI came out at 35.5%.
The molecule `CC(=O)O[C@@H]1C[C@H]2C(C)(C)C(=O)C=C[C@]2(C)[C@H]2CC[C@]3(C)C(=CC[C@H]3c3ccoc3)[C@@]21C` [AZADIRONE] yielded a PFI of 48.3%.
In the case of `CC(=O)OC1=C2C(C)(C)C(=O)C=C[C@]2(C)[C@H]2CC[C@@]3(C)[C@H](c4ccoc4)C[C@H]4O[C@]43[C@]2(C)C1=O` [CEDRELONE ACETATE] it was 55%; in that of `CC1(C)C(=O)[C@H]2O[C@H]2[C@@]2(C)C1=C(O)C(=O)[C@]1(C)[C@@H]2CC[C@@]2(C)[C@H](c3ccoc3)C[C@H]3O[C@]321` [CEDRELONE EPOXIDE], 43.5%.
The molecule `CC1(C)C(=O)C=C[C@@]2(C)C1=C(O)C(=O)[C@]1(C)[C@@H]2CC[C@@]2(C)[C@H](C3=CC(O)OC3=O)C[C@H]3O[C@]321` (stereo partly drawn) [CEDRELONE PP-OH] returned a PFI of 22.4%.
The same measure for `CC1(C)C(=O)C=C[C@@]2(C)C1=C(O)C(=O)[C@]1(C)[C@@H]2CC[C@@]2(C)[C@H](C3=CO[C@@H]4O[C@H]34)C[C@H]3O[C@]321` [CEDRELONE-22-EPOXIDE]: 44.2%; for `CC(=O)OC1=C2C(C)(C)C(=O)[C@H]3O[C@H]3[C@]2(C)[C@H]2CC[C@@]3(C)[C@H](c4ccoc4)C[C@H]4O[C@]43[C@]2(C)C1=O` [CEDRELONEEPOXIDE ACETATE]: 53.2%; for `COC1=C2C(C)(C)C(=O)C=C[C@]2(C)[C@H]2CC[C@@]3(C)[C@H](c4ccoc4)C[C@H]4O[C@]43[C@]2(C)C1=O` [CEDRELONEMETHYL ETHER]: 56%.
The same measure for `CC1(C)C(=O)C=C[C@@]2(C)C1=C(O)C(=O)[C@]1(C)[C@@H]2CC[C@@]2(C)[C@H](c3ccoc3)C[C@H]3O[C@]321` [CEDRELONE]: 51.5%; for `COC(=O)C[C@H]1[C@]2(C)C3=C(C)[C@H](c4ccoc4)C[C@H]3O[C@@H]2[C@H](O)[C@@H]2[C@]1(C)C(=O)C=C[C@@]2(C)C(=O)OC` [DEACETYLNIMBIN]: 34.7%; for `C/C=C(\C)C(=O)O[C@H]1C[C@@H](O)[C@@]2(C)CO[C@H]3[C@H]4O[C@@H]5C[C@@H](c6ccoc6)C(C)=C5[C@@]4(C)[C@H](CC(=O)OC)[C@]1(C)[C@@H]32` [DESACETYL SALANNIN]: 44.67%.
In the case of `C/C=C(\C)C(=O)O[C@H]1C[C@@H](O)[C@@]2(C)CO[C@H]3[C@H]4O[C@@H]5C[C@@H](C6=CC(O)OC6=O)C(C)=C5[C@@]4(C)[C@H](CC(=O)OC)[C@]1(C)[C@@H]32` (stereo partly drawn) [DESACETYL SALANNOLIDE], the PFI is recorded as 28.44%.
In the case of `COC(=O)C[C@H]1[C@]2(C)C3=C(C)[C@H](C4=CCOC4=O)C[C@H]3O[C@@H]2[C@H](O)[C@@H]2[C@]1(C)C(=O)C=C[C@@]2(C)C(=O)OC` [DESACETYLNIMBIN MW] it was 35.1%; in that of `C/C=C(\C)C(=O)O[C@H]1C[C@@H](O)[C@@]2(C)CO[C@H]3[C@H]4O[C@@H]5C[C@@H](C6=CCOC6=O)C(C)=C5[C@@]4(C)[C@H](CC(=O)OC)[C@]1(C)[C@@H]32` [DESACETYLSALANNOBUTYROLACTONE], 40.35%; in that of `CC1(C)C(=O)C=C[C@@]2(C)C1=C(O)C(=O)[C@@]1(C)C3=CC[C@@H](c4ccoc4)[C@]3(C)CC[C@@H]12` [DESEPOXYCEDRELONE], 55.3%.
The same measure for `COC1=C2C(C)(C)C(=O)CC[C@]2(C)[C@H]2CC[C@@]3(C)[C@H](c4ccoc4)C[C@H]4O[C@]43[C@]2(C)C1=O` [DIHYDROCEDRELONE METHYL ETHER]: 56.5%.
The same measure for `CC1(C)C(=O)CC[C@@]2(C)C1=C(O)C(=O)[C@]1(C)[C@@H]2CC[C@@]2(C)[C@H](c3ccoc3)C[C@H]3O[C@]321` [DIHYDROCEDRELONE]: 50.5%; for `CC(=O)O[C@@H]1C[C@H]2C(C)(C)C(=O)C=C[C@]2(C)[C@H]2CC[C@@]3(C)[C@H](C4=CC(O)OC4=O)C(=O)[C@H]4O[C@]43[C@@]21C` (stereo partly drawn) [EPOXY AZADIRADIONE PP]: 29.4%.
`CC(=O)O[C@@H]1[C@H](O)[C@H]2C(C)(C)C(=O)C=C[C@]2(C)[C@H]2CC[C@@]3(C)[C@H](c4ccoc4)C[C@H]4O[C@]43[C@]12C` [EPOXY NIMONOL] returned a PFI of 32%.
In the case of `CC(=O)O[C@@H]1C[C@H]2C(C)(C)C(=O)C=C[C@]2(C)[C@H]2CC[C@@]3(C)[C@H](c4ccoc4)C(=O)[C@H]4O[C@]43[C@@]21C` [EPOXYAZADIRADIONE] it was 50.4%; in that of `CC(=O)O[C@@H]1C[C@H]2C(C)(C)C(=O)C=C[C@]2(C)[C@H]2CC[C@@]3(C)[C@H](c4ccoc4)OC(=O)[C@H]4O[C@]43[C@@]21C` [GEDUNIN], 37.3%; in that of `CC(=O)O[C@@H]1C[C@H]2C(C)(C)CC(=O)C=C[C@]2(C)[C@H]2CC[C@]3(C)C(=CC[C@H]3c3ccoc3)[C@@]21C` [HOMOAZADIRADIONE], 60%.
In the case of `CC(=O)O[C@@H]1[C@H](O)[C@H]2C(C)(C)C(=O)CC[C@]2(C)[C@H]2CC[C@]3(C)C(=CC[C@H]3C3=CC(O)OC3=O)[C@]12C` (stereo partly drawn) [ISOMELDENIN PP] it was 28.3%; in that of `CC(=O)OC1[C@H](O)[C@H]2C(C)(C)C(=O)CC[C@]2(C)[C@H]2CC[C@]3(C)C(=CC[C@H]3c3ccoc3)[C@]12C` (stereo partly drawn) [ISOMELDENIN], 60.6%; in that of `COC1=C2C(C)(C)C(=O)[C@H]3O[C@H]3[C@]2(C)[C@H]2CC[C@@]3(C)[C@H](c4ccoc4)C[C@H]4O[C@]43[C@]2(C)C1=O` [METHYL ETHER CEDRELONEEPOXIDE], 54%.
In the case of `C=C1[C@@H]2CC[C@@]3(C)[C@H](c4ccoc4)OC(=O)C[C@]13O[C@H]1CC(=O)C(C)(C)[C@H](CC(=O)OC)[C@]12C` [METHYLANGOLENSATE] it was 65.3%.
On to `COC(=O)C[C@H]1[C@]2(C)C3=C(C)[C@H](C4=CCOC4=O)C[C@H]3O[C@@H]2[C@H](OC(C)=O)[C@@H]2[C@]1(C)C(=O)C=C[C@@]2(C)C(=O)OC` [NIMBIN MW], for which the PFI is reported as 42.9%.
Turning to `COC(=O)C[C@H]1[C@]2(C)C3=C(C)[C@H](C4=CC(=O)OC4O)C[C@H]3O[C@@H]2[C@H](OC(C)=O)[C@@H]2[C@]1(C)C(=O)C=C[C@@]2(C)C(=O)OC` (stereo partly drawn) [NIMBIN PP], the PFI turned out to be 19.9%.
In the case of `COC(=O)C[C@H]1[C@]2(C)C3=C(C)[C@H](C4=CC(O)OC4=O)C[C@H]3O[C@@H]2[C@H](OC(C)=O)[C@@H]2[C@]1(C)C(=O)C=C[C@@]2(C)C(=O)OC` (stereo partly drawn) [NIMBINOLIDE] it was 26.7%.
The same measure for `COC(=O)C[C@H]1[C@]2(C)C3=C(C)[C@H](c4ccoc4)C[C@H]3O[C@@H]2[C@H](OC(C)=O)[C@@H]2[C@]1(C)C(=O)C=C[C@@]2(C)C(=O)OC` [NIMBIN]: 33.7%.
In the case of `COC(=O)C[C@H]1[C@]2(C)C3=C(C)[C@H](c4ccoc4)C[C@H]3O[C@@H]2[C@@H]2OC(=O)[C@]3(C)C=CC(=O)[C@@]1(C)[C@@H]23` [NIMBOLIDE] it was 37%.
In turn, `CC(=O)O[C@@H]1[C@H](O)[C@H]2C(C)(C)C(=O)C=C[C@]2(C)[C@H]2CC[C@]3(C)C(=CC[C@H]3C3=CCOC3=O)[C@]12C` [NIMONOL MW] registered a PFI of 44.2%.
